According to US9090600B2, “Fungicidal 4-substituted-3-{phenyl[(heterocyclylmethoxy)imino]methyl}-1,2,4-oxadizol-5(4H)-one derivatives” (BAYER INTELLECTUAL PROPERTY GMBH, priority 2011, dated 2015):
Marks after values point to notes of the source that are not given here.

Conditions: pH 2.7

| Compound | LogP |
| --- | --- |
| CCCCCCCOC(=O)Nc1cccc(CO/N=C(/c2ccccc2)c2noc(=O)n2C)n1 [compound 419] | 5.25 [a] |
| CCOC(=O)Nc1cccc(CO/N=C(/c2ccccc2)c2noc(=O)n2C)n1 [compound 421] | 3.21 [a] |
| Cn1c(/C(=N\OCc2cccc(NC(=O)OCCC[Si](C)(C)C)n2)c2ccccc2)noc1=O [compound 422] | 5.28 [a] |
| Cn1c(/C(=N\OCc2cccc(NC(=O)OCCC(C)(C)C)n2)c2ccccc2)noc1=O [compound 423] | 4.68 [a] |
| Cn1c(/C(=N\OCc2cccc(NC(=O)OCC(C)(CO)CCl)n2)c2ccccc2)noc1=O (centres unmarked) [compound 424] | 3.19 [a] |
| Cc1ccc(OC(=O)Nc2cccc(CO/N=C(/c3ccccc3)c3noc(=O)n3C)n2)cc1 [compound 425] | 4.03 [a] |
| CCCc1ccccc1OC(=O)Nc1cccc(CO/N=C(/c2ccccc2)c2noc(=O)n2C)n1 [compound 426] | 4.54 [a] |
| CC(C)OC(=O)Nc1cccc(CO/N=C(/c2ccccc2)c2noc(=O)n2C)n1 [compound 427] | 3.55 [a] |
| Cn1c(/C(=N\OCc2cccc(NC(=O)OCc3c(Cl)cccc3Cl)n2)c2ccccc2)noc1=O [compound 428] | 4.56 [a] |
| COC(C)CCOC(=O)Nc1cccc(CO/N=C(/c2ccccc2)c2noc(=O)n2C)n1 (centres unmarked) [compound 429] | 3.37 [a] |
| CCc1ccccc1OC(=O)Nc1cccc(CO/N=C(/c2ccccc2)c2noc(=O)n2C)n1 [compound 430] | 4.25 [a] |
| CCOCCCOC(=O)Nc1cccc(CO/N=C(/c2ccccc2)c2noc(=O)n2C)n1 [compound 431] | 3.44 [a] |
| Cn1c(/C(=N\OCc2cccc(NC(=O)OCc3ccc(C#N)cc3)n2)c2ccccc2)noc1=O [compound 432] | 3.61 [a] |
| Cn1c(/C(=N\OCc2cccc(NC(=O)OCC3CCCCO3)n2)c2ccccc2)noc1=O (centres unmarked) [compound 433] | 3.5 [a] |
| Cn1c(/C(=N\OCc2cccc(NC(=O)OCc3cccnc3)n2)c2ccccc2)noc1=O [compound 434] | 2.17 [a] |
| CCc1cccc(OC(=O)Nc2cccc(CO/N=C(/c3ccccc3)c3noc(=O)n3C)n2)c1 [compound 435] | 4.34 [a] |
| C#CCCCOC(=O)Nc1cccc(CO/N=C(/c2ccccc2)c2noc(=O)n2C)n1 [compound 436] | 3.51 [a] |
| Cn1c(/C(=N\OCc2cccc(NC(=O)OCc3ccccn3)n2)c2ccccc2)noc1=O [compound 437] | 2.64 [a] |
| Cn1c(/C(=N\OCc2cccc(NC(=O)OCCC3CC3)n2)c2ccccc2)noc1=O [compound 438] | 4.01 [a] |
| CCOCCOCCOC(=O)Nc1cccc(CO/N=C(/c2ccccc2)c2noc(=O)n2C)n1 [compound 439] | 3.13 [a] |
| Cn1c(/C(=N\OCc2cccc(NC(=O)OC[Si](C)(C)C)n2)c2ccccc2)noc1=O [compound 440] | 4.53 [a] |
| COc1cccc(COC(=O)Nc2cccc(CO/N=C(/c3ccccc3)c3noc(=O)n3C)n2)c1 [compound 441] | 3.96 [a] |
| Cn1c(/C(=N\OCc2cccc(NC(=O)OCC#C[Si](C)(C)C)n2)c2ccccc2)noc1=O [compound 443] | 4.63 [a] |
| Cn1c(/C(=N\OCc2cccc(NC(=O)OC(C)(C)C(Cl)(Cl)Cl)n2)c2ccccc2)noc1=O [compound 445] | 4.91 [a] |
| CC(=O)CCCOC(=O)Nc1cccc(CO/N=C(/c2ccccc2)c2noc(=O)n2C)n1 [compound 446] | 2.96 [a] |
| Cn1c(/C(=N\OCc2cccc(NC(=O)OCCOCCCl)n2)c2ccccc2)noc1=O [compound 447] | 3.29 [a] |
| CC(C)=CCCOC(=O)Nc1cccc(CO/N=C(/c2ccccc2)c2noc(=O)n2C)n1 [compound 448] | 4.39 [a] |

| Compound | LogP |
| --- | --- |
| COc1ccc(COC(=O)Nc2cccc(CO/N=C(/c3ccccc3)c3noc(=O)n3C)n2)cc1 [compound 450] | 3.92 [a] |
| CC(COC(=O)Nc1cccc(CO/N=C(/c2ccccc2)c2noc(=O)n2C)n1)CC(C)(C)C (centres unmarked) [compound 451] | 5.39 [a] |
| C=CCC#CCCOC(=O)Nc1cccc(CO/N=C(/c2ccccc2)c2noc(=O)n2C)n1 [compound 452] | 4.01 [a] |
| C=CCCCCOC(=O)Nc1cccc(CO/N=C(/c2ccccc2)c2noc(=O)n2C)n1 [compound 454] | 4.39 [a] |
| Cn1c(/C(=N\OCc2cccc(NC(=O)OCCOc3ccccc3)n2)c2ccccc2)noc1=O [compound 456] | 3.94 [a] |
| COC(C)(C)CCOC(=O)Nc1cccc(CO/N=C(/c2ccccc2)c2noc(=O)n2C)n1 [compound 457] | 3.59 [a] |
| Cc1cccc(COC(=O)Nc2cccc(CO/N=C(/c3ccccc3)c3noc(=O)n3C)n2)c1 [compound 458] | 4.34 [a] |
| Cn1c(/C(=N\OCc2cccc(NC(=O)OCCBr)n2)c2ccccc2)noc1=O [compound 459] | 3.42 [a] |
| Cn1c(/C(=N\OCc2cccc(NC(=O)OCC(Cl)Cl)n2)c2ccccc2)noc1=O [compound 461] | 3.74 [a] |
| CC(C)[C@@H]1CC[C@@H](C)C[C@H]1OC(=O)Nc1cccc(CO/N=C(/c2ccccc2)c2noc(=O)n2C)n1 [compound 462] | 5.9 [a] |
| CCCCCCCCOC(=O)Nc1cccc(CO/N=C(/c2ccccc2)c2noc(=O)n2C)n1 [compound 465] | 5.65 [a] |
| C=C(C)OC(=O)Nc1cccc(CO/N=C(/c2ccccc2)c2noc(=O)n2C)n1 [compound 466] | 3.37 [a] |
| CCCc1ccc(OC(=O)Nc2cccc(CO/N=C(/c3ccccc3)c3noc(=O)n3C)n2)cc1 [compound 467] | 4.74 [a] |
| Cn1c(/C(=N\OCc2cccc(NC(=O)OCC#Cc3ccccc3)n2)c2ccccc2)noc1=O [compound 468] | 4.25 [a] |
| CCCc1cccc(OC(=O)Nc2cccc(CO/N=C(/c3ccccc3)c3noc(=O)n3C)n2)c1 [compound 469] | 4.72 [a] |
| Cc1cc(C)c(OC(=O)Nc2cccc(CO/N=C(/c3ccccc3)c3noc(=O)n3C)n2)c(C)c1 [compound 470] | 4.56 [a] |
| Cn1c(/C(=N\OCc2cccc(NC(=O)OCCc3ccccn3)n2)c2ccccc2)noc1=O [compound 471] | 2.07 [a] |
| CN(C)CCCOC(=O)Nc1cccc(CO/N=C(/c2ccccc2)c2noc(=O)n2C)n1 [compound 472] | 1.88 [a] |
| Cn1c(/C(=N\OCc2cccc(NC(=O)OCC3CC3)n2)c2ccccc2)noc1=O [compound 473] | 3.64 [a] |
| Cn1c(/C(=N\OCc2cccc(NC(=O)OCc3ccc([N+](=O)[O-])cc3)n2)c2ccccc2)noc1=O [compound 476] | 3.83 [a] |
| Cn1c(/C(=N\OCc2cccc(NC(=O)OCc3cccc(C#N)c3)n2)c2ccccc2)noc1=O [compound 477] | 3.65 [a] |
| CCc1ccc(OC(=O)Nc2cccc(CO/N=C(/c3ccccc3)c3noc(=O)n3C)n2)cc1 [compound 478] | 4.39 [a] |
| C=COC(=O)Nc1cccc(CO/N=C(/c2ccccc2)c2noc(=O)n2C)n1 [compound 482] | 3.33 [a] |
| Cn1c(C(=NOCc2cccc(NC(=O)OCC3CCCO3)n2)c2ccccc2)noc1=O (centres unmarked) [compound 483] | 3.11 [a] |
| C#CCCCCOC(=O)Nc1cccc(CON=C(c2ccccc2)c2noc(=O)n2C)n1 [compound 484] | 3.78 [a] |
| CC(OC(=O)Nc1cccc(CON=C(c2ccccc2)c2noc(=O)n2C)n1)C1CCCCC1 (centres unmarked) [compound 485] | 5.25 [a] |
